Reference: US10258694B2, “Skin external preparation and skin irritation-reducing method” (priority 2014, dated 2019)

Test system: three-dimensional skin model (EPI-212SIT)
Experiment: Irritation test using three-dimensional skin model, MTT relative viability (Test Example 1-5)
Type: cell-based
Settings: 60 min exposure, 42 h post-incubation, 0.5 and 1.0 mass % pitavastatin calcium, powder
Description: The following <5-A> to <5-G> were used as test materials to perform exposure of the epidermis to the test materials and irritation evaluation in the following manner in accordance with OECD TG439 (In Vitro skin irritation test) using a kit for skin irritation test approved by OECD (EPI-212SIT manufactured by KURABO).
The epidermis in the kit was pre-incubated overnight, and then 30 μL of the test material was added to the stratum corneum side of the epidermis, and a nylon mesh was placed with tweezers to expose the stratum corneum to the test material. When the test material was solid (<5-E> described below), 25 μL of DPBS was added to the stratum corneum, and immediately after that, 25 mg of the solid material was added to the stratum corneum to expose the stratum corneum to the test material. After 60 minutes, the test material was completely removed by washing. Then, post-incubation was performed for 42 hours. In the process of the post-incubation, a culture medium was replaced once after a lapse of 24 hours. After the post-incubation, a reaction with an MTT solution was performed for 3 hours using an MTT assay kit (MTT-100-JP manufactured by KURABO), and a formazan dye produced by mitochondrial metabolism was extracted to measure the OD value. Based on the measurement result, relative viability was calculated by comparison with a negative control (<5-G> described below).

## O=C([O-])C[C@H](O)C[C@H](O)/C=C/c1c(C2CC2)nc2ccccc2c1-c1ccc(F)cc1.O=C([O-])C[C@H](O)C[C@H](O)/C=C/c1c(C2CC2)nc2ccccc2c1-c1ccc(F)cc1.[Ca+2] [pitavastatin calcium]
  relative viability (vs negative control DPBS): reduced in a manner dependent on the concentration
